According to patent US7683179B2, “Lercanidipine salts” (Recordati Ireland Limited, priority 2004, dated 2010):
“Also recorded” adds a separate entry of the source. Structures can show the parent of a compound that is named as a salt. Where two headings read alike, the source gives them in different places.

Tests used:
Type in all cases: physicochemical
[1] = Solubility by UV-Visible spectroscopy in aqueous 0.1 M HCl (pH 1) at 22° C.; settings: for solubility at 24 h: 22 °C, pH 1, simulated gastric fluid, thermodynamic from solid; for solubility: pH 1
Method: The solubility of crystalline lercanidipine besylate, napadisylate and hydrochloride and amorphous lercanidipine besylate was evaluated by UV-Visible spectroscopy in aqueous 0.1 M HCl (pH 1) at 22° C. Suspensions of approximately 0.3 mg/ml of the respective compounds were prepared in an aqueous 0.1 M HCl and equilibrated by shaking for 24 hours. Following equilibration, the samples were filtered (0.1 μm filter) and the concentration was determined photometrically using Perkin Elmer Lambda 16 (Überlingen, Germany). Reference measurements were performed with 20% acetonitrile as a co-solvent.

[2] = Hygroscopicity by DVS analysis (water absorption analyzer); settings: humidity cycling between 0 and 95% RH at 25° C.
Method: The hygroscopicity of both amorphous and crystalline lercanidipine salts was determined by DVS analysis using a water absorption analyzer (Surface Measurement System Ltd., Marion, Buckinghamshire, UK). The analysis were carried out according to the following conditions: 10-15 mg of sample were placed on a quartz or platinum holder, the holder was placed in-turn on a microbalance, and the sample underwent humidity cycling between 0 and 95% relative humidity (RH) at 25° C. (50-95-0-95-0-50% at a rate of 5% RH/hr).

[3] = Stability of crystalline salts (statement, no method)

| Molecule | solubility at 24 h ([1]; Solubility) [µg/mL] | solubility at 24 h ([1]; solubility in 0.1 N HCl) [µg/mL] | Hygroscopicity [2] | solubility compared with other salt forms ([1]; 0.1 M / 0.1 N HCl, comparison in words) | solubility in 0.1 M HCl at 22° C. ([1]; 0.1 M HCl, 22° C.) | stability [3] | solubility [1] [µg/mL] | solubility compared with other salt forms [1] | solubility in 0.1 M HCl at 22° C. [1] |
| --- | --- | --- | --- | --- | --- | --- | --- | --- | --- |
| COC(=O)C1=C(C)NC(C)=C(C(=O)OC(C)(C)CN(C)CCC(c2ccccc2)c2ccccc2)C1c1cccc([N+](=O)[O-])c1 (stereo not shown) [Crystalline hydrochloride, lercanidipine hydrochloride, reference compound] | 10 | ~10 | – | – | – | – | – | – | – |
| lercanidipine besylate [Crystalline besylate] | – | – | non-hygroscopic | lower solubility than the amorphous salt; also recorded: substantially more soluble than either crystalline hydrochloride or napadisylate | about 87 mg/L | good stability | – | – | – |
| lercanidipine besylate [Amorphous besylate] | – | – | non-hygroscopic | – | – | – | 155 | – | – |
| COC(=O)C1=C(C)NC(C)=C(C(=O)OC(C)(C)CN(C)CCC(c2ccccc2)c2ccccc2)C1c1cccc([N+](=O)[O-])c1.COC(=O)C1=C(C)NC(C)=C(C(=O)OC(C)(C)CN(C)CCC(c2ccccc2)c2ccccc2)C1c1cccc([N+](=O)[O-])c1.O=S(=O)(O)c1cccc2c(S(=O)(=O)O)cccc12 (stereo not shown) [Crystalline napadisylate, lercanidipine napadisylate] | – | – | hygroscopic | – | – | good stability | 3.5 | lower solubility than the amorphous salt | about 3.5 mg/L |
